Data on one molecule can be found in publication PMC5218480 (PLoS ONE, 2017).

This test relates to MV-4-11 cells. As to the kind of experiment: Gene expression microarray analysis (Affymetrix PrimeView) and GSEA. The test is classed as cell-based, human. Set-up: RFU PODN (11730768_x_at) / Fold change /veh PODN (11730768_x_at) / RFU LINC00158 (11744669_a_at) / Fold change /veh LINC00158 (11744669_a_at) / RFU DUSP10 (11751237_a_at) / Fold change /veh DUSP10 (11751237_a_at) / RFU ID3 (11757404_x_at) / Fold change /veh ID3 (11757404_x_at) / RFU PLEKHG5 (11737974_s_at) / Fold change /veh PLEKHG5 (11737974_s_at) / RFU LRRC4B (11730491_at) / Fold change /veh LRRC4B (11730491_at) / RFU GIMAP4 (11747438_a_at) / Fold change /veh GIMAP4 (11747438_a_at) / RFU KRT8 (11758183_x_at) / Fold change /veh KRT8 (11758183_x_at) / RFU CNN1 (11734310_a_at) / Fold change /veh CNN1 (11734310_a_at) / RFU VPS37D (11726825_at) / Fold change /veh VPS37D (11726825_at) / RFU C10orf10 (11716522_x_at) / Fold change /veh C10orf10 (11716522_x_at) / RFU KIR2DL2 /// KIR2DL4 /// KIR2DL5A /// KIR2DL5B /// KIR2DS1 /// KIR2DS2 /// KIR2DS3 /// KIR2DS4 /// KIR3DL3 /// KIR3DL3 /// KIR3DS1 (11738374_at) / Fold change /veh KIR2DL2 /// KIR2DL4 /// KIR2DL5A /// KIR2DL5B /// KIR2DS1 /// KIR2DS2 /// KIR2DS3 /// KIR2DS4 /// KIR3DL3 /// KIR3DL3 /// KIR3DS1 (11738374_at) / RFU C1QL1 (11718748_at) / Fold change /veh C1QL1 (11718748_at) / RFU TMPRSS4 (11747572_a_at) / Fold change /veh TMPRSS4 (11747572_a_at) / RFU HAMP (11756126_x_at) / Fold change /veh HAMP (11756126_x_at) / RFU RNFT2 (11725882_a_at) / Fold change /veh RNFT2 (11725882_a_at) / RFU NR4A2 (11747474_a_at) / Fold change /veh NR4A2 (11747474_a_at) / RFU ABCC12 (11746883_a_at) / Fold change /veh ABCC12 (11746883_a_at) / RFU TMEM136 (11760407_x_at) / Fold change /veh TMEM136 (11760407_x_at) / RFU CLDN22 /// WWC2 (11732394_at) / Fold change /veh CLDN22 /// WWC2 (11732394_at) / RFU HLA-DPB1 (11760878_x_at) / Fold change /veh HLA-DPB1 (11760878_x_at) / RFU SPINT1 (11716480_a_at) / Fold change /veh SPINT1 (11716480_a_at) / RFU GAP43 (11754022_s_at) / Fold change /veh GAP43 (11754022_s_at) / RFU A4GNT (11735810_at) / Fold change /veh A4GNT (11735810_at) / RFU PRB3 (11715151_x_at) / Fold change /veh PRB3 (11715151_x_at) / RFU TUBB4B (11761932_at) / Fold change /veh TUBB4B (11761932_at) / RFU CAPN14 (11732068_a_at) / Fold change /veh CAPN14 (11732068_a_at) / RFU TMCC2 (11721928_a_at) / Fold change /veh TMCC2 (11721928_a_at) / RFU IRGQ (11745062_a_at) / Fold change /veh IRGQ (11745062_a_at) / RFU FAM174B (11720279_a_at) / Fold change /veh FAM174B (11720279_a_at) / RFU TMPRSS4 (11748680_a_at) / Fold change /veh TMPRSS4 (11748680_a_at) / RFU FAM212B (11763350_a_at) / Fold change /veh FAM212B (11763350_a_at) / RFU PLEKHG5 (11743358_a_at) / Fold change /veh PLEKHG5 (11743358_a_at) / RFU ZSCAN30 (11745921_a_at) / Fold change /veh ZSCAN30 (11745921_a_at) / RFU CMKLR1 (11741424_a_at) / Fold change /veh CMKLR1 (11741424_a_at) / RFU LOC101060620 /// MAPK8IP1 (11723275_at) / Fold change /veh LOC101060620 /// MAPK8IP1 (11723275_at) / RFU SPTSSB (11747773_x_at) / Fold change /veh SPTSSB (11747773_x_at) / RFU PRSS12 (11739890_at) / Fold change /veh PRSS12 (11739890_at) / RFU BIN1 (11741810_x_at) / Fold change /veh BIN1 (11741810_x_at) / RFU WNT11 (11732464_a_at) / Fold change /veh WNT11 (11732464_a_at) / RFU C10orf10 (11716521_a_at) / Fold change /veh C10orf10 (11716521_a_at) / RFU C5orf56 (11738089_at) / Fold change /veh C5orf56 (11738089_at) / RFU CYB561 (11721691_x_at) / Fold change /veh CYB561 (11721691_x_at) / RFU ANKRD19P (11752326_a_at) / Fold change /veh ANKRD19P (11752326_a_at) / RFU OR2T12 /// OR2T33 /// OR2T8 (11738714_s_at) / Fold change /veh OR2T12 /// OR2T33 /// OR2T8 (11738714_s_at) / RFU VCAN (11748164_a_at) / Fold change /veh VCAN (11748164_a_at) / RFU JSRP1 (11732532_at) / Fold change /veh JSRP1 (11732532_at) / RFU KRTAP10-11 (11738290_x_at) / Fold change /veh KRTAP10-11 (11738290_x_at) / RFU MYO3A (11730013_a_at) / Fold change /veh MYO3A (11730013_a_at) / RFU EBF3 (11725865_a_at) / Fold change /veh EBF3 (11725865_a_at) / RFU CAMK2N1 (11719241_x_at) / Fold change /veh CAMK2N1 (11719241_x_at) / RFU C5orf56 (11738088_a_at) / Fold change /veh C5orf56 (11738088_a_at) / RFU OLFML3 (11715873_a_at) / Fold change /veh OLFML3 (11715873_a_at) / RFU LOC100653217 /// NTM (11731650_a_at) / Fold change /veh LOC100653217 /// NTM (11731650_a_at) / RFU MAPK11 (11762145_a_at) / Fold change /veh MAPK11 (11762145_a_at) / RFU FIZ1 (11724087_x_at) / Fold change /veh FIZ1 (11724087_x_at) / RFU OASL (11726364_x_at) / Fold change /veh OASL (11726364_x_at) / RFU SOX15 (11748057_x_at) / Fold change /veh SOX15 (11748057_x_at) / RFU CD79A (11719716_a_at) / Fold change /veh CD79A (11719716_a_at) / RFU HIST1H1D (11736915_at) / Fold change /veh HIST1H1D (11736915_at) / RFU CASKIN2 (11723855_a_at) / Fold change /veh CASKIN2 (11723855_a_at) / RFU LOC730098 (11760151_x_at) / Fold change /veh LOC730098 (11760151_x_at) / RFU OR4N2 (11742367_at) / Fold change /veh OR4N2 (11742367_at) / RFU PRRT2 (11749266_a_at) / Fold change /veh PRRT2 (11749266_a_at) / RFU SNX32 (11753110_a_at) / Fold change /veh SNX32 (11753110_a_at) / RFU CDHR5 (11726645_a_at) / Fold change /veh CDHR5 (11726645_a_at) / RFU RCAN1 (11760418_a_at) / Fold change /veh RCAN1 (11760418_a_at) / RFU FAM167A (11723789_a_at) / Fold change /veh FAM167A (11723789_a_at) / RFU FAM26E (11764081_at) / Fold change /veh FAM26E (11764081_at) / RFU ISYNA1 (11749810_s_at) / Fold change /veh ISYNA1 (11749810_s_at) / RFU ACY1 (11761880_at) / Fold change /veh ACY1 (11761880_at) / RFU 11764098_at / Fold change /veh 11764098_at / RFU SAMD14 (11745864_x_at) / Fold change /veh SAMD14 (11745864_x_at) / RFU NPB (11741838_a_at) / Fold change /veh NPB (11741838_a_at) / RFU TMPRSS6 (11731388_a_at) / Fold change /veh TMPRSS6 (11731388_a_at) / RFU KRTAP10-2 (11738614_at) / Fold change /veh KRTAP10-2 (11738614_at) / RFU ARHGAP8 /// PRR5-ARHGAP8 (11727945_x_at) / Fold change /veh ARHGAP8 /// PRR5-ARHGAP8 (11727945_x_at) / RFU KRTAP5-7 /// NADSYN1 (11734609_at) / Fold change /veh KRTAP5-7 /// NADSYN1 (11734609_at) / RFU RASL12 (11751679_a_at) / Fold change /veh RASL12 (11751679_a_at) / RFU CDKN2B (11736163_a_at) / Fold change /veh CDKN2B (11736163_a_at) / RFU PRF1 (11729649_at) / Fold change /veh PRF1 (11729649_at) / RFU, ZNF638 /// ZNF638-IT1 / Fold change vs veh, ZNF638 /// ZNF638-IT1 / RFU, PANK3 / Fold change vs veh, PANK3 / RFU, SH3YL1 / Fold change vs veh, SH3YL1 / RFU, ZEB2 / Fold change vs veh, ZEB2 / RFU, NRIP1 / Fold change vs veh, NRIP1 / RFU, PTTG1IP / Fold change vs veh, PTTG1IP / RFU, CAPN2 / Fold change vs veh, CAPN2 / RFU, MED14 / Fold change vs veh, MED14 / RFU, SNORA58 / Fold change vs veh, SNORA58 / RFU, C1orf63 / Fold change vs veh, C1orf63 / RFU, LRRFIP1 / Fold change vs veh, LRRFIP1 / RFU, NDUFAF7 / Fold change vs veh, NDUFAF7 / RFU, SLC12A2 / Fold change vs veh, SLC12A2 / RFU, IBTK / Fold change vs veh, IBTK / RFU, ESF1 / Fold change vs veh, ESF1 / Fold change vs veh, TMEM50B / RFU, TAOK1 / Fold change vs veh, TAOK1 / RFU, ACBD3 / Fold change vs veh, ACBD3 / RFU, TMA16 / Fold change vs veh, TMA16 / RFU, RWDD3 / Fold change vs veh, RWDD3 / RFU, BCAT1 / Fold change vs veh, BCAT1 / RFU, EDEM3 / Fold change vs veh, EDEM3 / RFU, TMEM33 / Fold change vs veh, TMEM33 / RFU, WDR75 / Fold change vs veh, WDR75 / RFU, AHCTF1 / Fold change vs veh, AHCTF1 / RFU, TFRC / Fold change vs veh, TFRC / RFU, ZDHHC17 / Fold change vs veh, ZDHHC17 / RFU, NOM1 / Fold change vs veh, NOM1 / RFU, ARL8B / Fold change vs veh, ARL8B / RFU, ZBTB11 / Fold change vs veh, ZBTB11 / RFU, TAMM41 / Fold change vs veh, TAMM41 / RFU, KIAA1704 /// LOC100996395 / Fold change vs veh, KIAA1704 /// LOC100996395 / RFU, ING1 / Fold change vs veh, ING1 / RFU, TRMT61B / Fold change vs veh, TRMT61B / RFU, FUBP3 / Fold change vs veh, FUBP3 / RFU, TP53 / Fold change vs veh, TP53 / RFU, TNKS2 / Fold change vs veh, TNKS2 / RFU, ZFP14 / Fold change vs veh, ZFP14 / RFU, ACTR2 / Fold change vs veh, ACTR2 / RFU, PPP3R1 / Fold change vs veh, PPP3R1 / RFU, PIK3R1 / Fold change vs veh, PIK3R1 / RFU, HNRNPA1 / Fold change vs veh, HNRNPA1 / RFU, RNF170 / Fold change vs veh, RNF170 / RFU, ZNF28 / Fold change vs veh, ZNF28 / RFU, RNGTT / Fold change vs veh, RNGTT / RFU, OGT / Fold change vs veh, OGT / RFU, BRD1 / Fold change vs veh, BRD1 / RFU, MARS / Fold change vs veh, MARS / RFU, ZNF655 / Fold change vs veh, ZNF655 / RFU, FAHD1 / Fold change vs veh, FAHD1 / RFU, BDP1 / Fold change vs veh, BDP1 / RFU, LRRCC1 / Fold change vs veh, LRRCC1 / RFU, ARID1A / Fold change vs veh, ARID1A / RFU, ZNF146 / Fold change vs veh, ZNF146 / RFU, ZNF330 / Fold change vs veh, ZNF330 / RFU, GPN3 / Fold change vs veh, GPN3 / RFU, C9orf123 / Fold change vs veh, C9orf123 / RFU, N4BP2L2 / Fold change vs veh, N4BP2L2 / RFU, ARFIP1 / Fold change vs veh, ARFIP1 / RFU, FAM179B / Fold change vs veh, FAM179B / RFU, BCL10 / Fold change vs veh, BCL10 / RFU, UHRF1BP1L / Fold change vs veh, UHRF1BP1L / RFU, BET1 / Fold change vs veh, BET1 / RFU, CNOT2 / Fold change vs veh, CNOT2 / RFU, ZNF268 / Fold change vs veh, ZNF268 / Fold change vs veh, ZNF507 / RFU, DGCR2 / Fold change vs veh, DGCR2 / RFU, WDSUB1 / Fold change vs veh, WDSUB1 / Fold change vs veh, HSP90B1 /// MIR3652 / RFU, ADSS / Fold change vs veh, ADSS / RFU, GK / Fold change vs veh, GK / RFU, ZNF148 / Fold change vs veh, ZNF148 / RFU, TAF9 / Fold change vs veh, TAF9 / RFU, SLC1A5 / Fold change vs veh, SLC1A5 / RFU, SLMO2 / Fold change vs veh, SLMO2 / RFU, ABCC4 / Fold change vs veh, ABCC4 / RFU, LOC101060439 /// RAP1B / Fold change vs veh, LOC101060439 /// RAP1B / RFU, RFX7 / Fold change vs veh, RFX7 / RFU, GTPBP10 / Fold change vs veh, GTPBP10 / RFU, CNEP1R1 / Fold change vs veh, CNEP1R1 / RFU, BIVM-ERCC5 /// ERCC5 / Fold change vs veh, BIVM-ERCC5 /// ERCC5 / RFU, ILF3 / Fold change vs veh, ILF3 / RFU 11762660_at / Fold change /veh 11762660_at / RFU VCAN (11757783_s_at) / Fold change /veh VCAN (11757783_s_at) / RFU DDX43 (11728927_at) / Fold change /veh DDX43 (11728927_at) / RFU KRT8 (11758188_x_at) / Fold change /veh KRT8 (11758188_x_at) / RFU NKD1 (11759106_at) / Fold change /veh NKD1 (11759106_at) / RFU SRD5A1 (11742802_a_at) / Fold change /veh SRD5A1 (11742802_a_at) / RFU TPSAB1 /// TPSB2 (11721975_s_at) / Fold change /veh TPSAB1 /// TPSB2 (11721975_s_at) / RFU GSTM3 (11746129_a_at) / Fold change /veh GSTM3 (11746129_a_at) / RFU IL23R (11737362_x_at) / Fold change /veh IL23R (11737362_x_at) / RFU TMEM51 (11727254_a_at) / Fold change /veh TMEM51 (11727254_a_at) / RFU PIWIL2 (11732686_x_at) / Fold change /veh PIWIL2 (11732686_x_at) / RFU ORM1 (11744905_x_at) / Fold change /veh ORM1 (11744905_x_at) / RFU CCDC152 (11743942_at) / Fold change /veh CCDC152 (11743942_at) / RFU ECM1 (11717891_a_at) / Fold change /veh ECM1 (11717891_a_at) / RFU IL23R (11748794_a_at) / Fold change /veh IL23R (11748794_a_at) / RFU TNFAIP8L3 (11732012_x_at) / Fold change /veh TNFAIP8L3 (11732012_x_at) / RFU MBOAT4 (11741988_at) / Fold change /veh MBOAT4 (11741988_at) / RFU 11764193_at / Fold change /veh 11764193_at / RFU TMEM53 (11763286_at) / Fold change /veh TMEM53 (11763286_at) / RFU MAGEB2 (11727129_at) / Fold change /veh MAGEB2 (11727129_at) / RFU TMEM200A (11744735_a_at) / Fold change /veh TMEM200A (11744735_a_at) / RFU CCDC152 (11751479_a_at) / Fold change /veh CCDC152 (11751479_a_at) / RFU FAM211A (11726209_a_at) / Fold change /veh FAM211A (11726209_a_at) / RFU RGS16 (11746705_a_at) / Fold change /veh RGS16 (11746705_a_at) / RFU VCAN (11755009_s_at) / Fold change /veh VCAN (11755009_s_at) / RFU RHOB (11743442_s_at) / Fold change /veh RHOB (11743442_s_at) / RFU RGS16 (11720943_a_at) / Fold change /veh RGS16 (11720943_a_at) / RFU RGS16 (11720944_at) / Fold change /veh RGS16 (11720944_at) / RFU, VPS4B / Fold change vs veh, VPS4B / RFU, CREB1 / Fold change vs veh, CREB1 / RFU, DNAJC13 / Fold change vs veh, DNAJC13 / RFU, GNAQ / Fold change vs veh, GNAQ / RFU, CDK5R1 / Fold change vs veh, CDK5R1 / RFU, ZRANB3 / Fold change vs veh, ZRANB3 / RFU, CUL4A / Fold change vs veh, CUL4A / RFU, CCNY / Fold change vs veh, CCNY / RFU, UFL1 / Fold change vs veh, UFL1 / RFU, COG3 / Fold change vs veh, COG3 / RFU, DIAPH2 / Fold change vs veh, DIAPH2 / RFU, SKA2 / Fold change vs veh, SKA2 / RFU, AFF3 / Fold change vs veh, AFF3 / RFU, LMF1 / Fold change vs veh, LMF1 / RFU, IPO11 / Fold change vs veh, IPO11 / RFU, DFFB / Fold change vs veh, DFFB / RFU, FOXP1 / Fold change vs veh, FOXP1 / RFU, CARD8 / Fold change vs veh, CARD8 / RFU, STRN3 / Fold change vs veh, STRN3 / RFU, ADK / Fold change vs veh, ADK / RFU, RASSF2 / Fold change vs veh, RASSF2 / RFU, WIPF1 / Fold change vs veh, WIPF1 / RFU, LARP1B / Fold change vs veh, LARP1B / RFU, RASA1 / Fold change vs veh, RASA1 / RFU, RB1 / Fold change vs veh, RB1 / RFU, PPFIA1 / Fold change vs veh, PPFIA1 / RFU, MAT2A / Fold change vs veh, MAT2A / RFU, CCT5 / Fold change vs veh, CCT5 / RFU, WDR92 / Fold change vs veh, WDR92 / RFU, CUX1 / Fold change vs veh, CUX1 / RFU, TTC7A / Fold change vs veh, TTC7A / RFU, TMEM135 / Fold change vs veh, TMEM135 / RFU, DEPTOR / Fold change vs veh, DEPTOR / RFU, CPM / Fold change vs veh, CPM / RFU, DNAJB6 / Fold change vs veh, DNAJB6 / RFU, CACNA2D3 / Fold change vs veh, CACNA2D3 / RFU, DTX4 / Fold change vs veh, DTX4 / RFU, TFCP2 / Fold change vs veh, TFCP2 / RFU, GMCL1 /// GMCL1P1 / Fold change vs veh, GMCL1 /// GMCL1P1 / RFU, AEBP2 / Fold change vs veh, AEBP2 / RFU, SNHG1 /// SNORD22 /// SNORD25 /// SNORD26 /// SNORD27 /// SNORD28 /// SNORD29 /// SNORD31 / Fold change vs veh, SNHG1 /// SNORD22 /// SNORD25 /// SNORD26 /// SNORD27 /// SNORD28 /// SNORD29 /// SNORD31 / Fold change (Aza/veh), C12orf56 (ProbeSet 11735607_a_at) / Fold change (ACY-1035/veh), C12orf56 (ProbeSet 11735607_a_at) / Fold change (Aza/veh), FGFR1OP (ProbeSet 11751329_s_at) / Fold change (ACY-1035/veh), FGFR1OP (ProbeSet 11751329_s_at) / Fold change (Aza/veh), VPS36 (ProbeSet 11739960_a_at) / Fold change (ACY-1035/veh), VPS36 (ProbeSet 11739960_a_at) / RFU SYPL1 (11715823_x_at) / Fold change /veh SYPL1 (11715823_x_at) / RFU IGFBP7 (11715501_s_at) / Fold change /veh IGFBP7 (11715501_s_at) / RFU REEP3 (11722064_at) / Fold change /veh REEP3 (11722064_at) / RFU IGLL1 (11728026_x_at) / Fold change /veh IGLL1 (11728026_x_at): dose or concentration left out as unconfirmed. The settings on record: ProbeSet 11755159_a_at; LIST D.

As to `Nc1ncn([C@@H]2O[C@H](CO)[C@@H](O)[C@H]2O)c(=O)n1` [azacitidine], the “RFU, COG3” value worked out at 74.05 RFU.
